Results from ChEMBL document CHEMBL1909294, “Translating clinical findings into knowledge in drug safety evaluation--drug induced liver injury prediction system (DILIps)” (PLoS Comput Biol, 2011).

Key:
[1] = tested on: Hepatotoxicity;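 for HepSE bilirubinemia: bilirubinemia hepatic side effect score drawn from the DILIps training data, a prediction system for drug-induced liver injury; call rule not given here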;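 for HepSE cholecystitis: Cholecystitis-related hepatic side effect score drawn from the DILIps (drug-induced liver injury prediction) training data set; call rule not given here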;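 for HepSE elevated liver function tests: hepatic side effect score for raised liver function tests, as recorded in the DILIps training set used for predicting drug-induced liver injury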; for HepSE hepatic failure: call rule not given here;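 for HepSE jaundice: Jaundice-related hepatic side-effect score drawn from the training data of the DILIps (drug-induced liver injury prediction system); call rule not given here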; for HepSE liver disease: call rule not given here;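 for HepSE liver fatty: hepatic side effect score for fatty liver, taken from the DILIps training set for predicting drug-induced liver injury; call rule not given here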
[2] = tested on: Hepatotoxicity; remark: listed apart in the source;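 for HepSE bilirubinemia: bilirubinemia hepatic side effect score drawn from the DILIps training data, a prediction system for drug-induced liver injury; call rule not given here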;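 for HepSE cholecystitis: Cholecystitis-related hepatic side effect score drawn from the DILIps (drug-induced liver injury prediction) training data set; call rule not given here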;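 for HepSE elevated liver function tests: hepatic side effect score for raised liver function tests, as recorded in the DILIps training set used for predicting drug-induced liver injury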; for HepSE hepatic failure: call rule not given here;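 for HepSE jaundice: Jaundice-related hepatic side-effect score drawn from the training data of the DILIps (drug-induced liver injury prediction system); call rule not given here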; for HepSE liver disease: call rule not given here;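 for HepSE liver fatty: hepatic side effect score for fatty liver, taken from the DILIps training set for predicting drug-induced liver injury; call rule not given here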
[3] = tested on: Hepatotoxicity; remark: listed apart in the source;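 for HepSE bilirubinemia: bilirubinemia hepatic side effect score drawn from the DILIps training data, a prediction system for drug-induced liver injury; call rule not given here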;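 for HepSE cholecystitis: Cholecystitis-related hepatic side effect score drawn from the DILIps (drug-induced liver injury prediction) training data set; call rule not given here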;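 for HepSE elevated liver function tests: hepatic side effect score for raised liver function tests, as recorded in the DILIps training set used for predicting drug-induced liver injury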; for HepSE hepatic failure: call rule not given here;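 for HepSE jaundice: Jaundice-related hepatic side-effect score drawn from the training data of the DILIps (drug-induced liver injury prediction system); call rule not given here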; for HepSE liver disease: call rule not given here;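 for HepSE liver fatty: hepatic side effect score for fatty liver, taken from the DILIps training set for predicting drug-induced liver injury; call rule not given here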
[4] = tested on: Hepatotoxicity; remark: listed apart in the source;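 for HepSE bilirubinemia: bilirubinemia hepatic side effect score drawn from the DILIps training data, a prediction system for drug-induced liver injury; call rule not given here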;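 for HepSE cholecystitis: Cholecystitis-related hepatic side effect score drawn from the DILIps (drug-induced liver injury prediction) training data set; call rule not given here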;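 for HepSE elevated liver function tests: hepatic side effect score for raised liver function tests, as recorded in the DILIps training set used for predicting drug-induced liver injury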; for HepSE hepatic failure: call rule not given here;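 for HepSE jaundice: Jaundice-related hepatic side-effect score drawn from the training data of the DILIps (drug-induced liver injury prediction system); call rule not given here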; for HepSE liver disease: call rule not given here
[5] = tested on: Hepatotoxicity; remark: listed apart in the source; for HepSE hepatic failure: call rule not given here; for HepSE liver disease: call rule not given here
[6] = tested on: Hepatotoxicity; remark: listed apart in the source; for HepSE hepatic failure: call rule not given here; for HepSE liver disease: call rule not given here
[7] = tested on: Hepatotoxicity; remark: listed apart in the source
[8] = tested on: Hepatotoxicity; remark: listed apart in the source
[9] = tested on: Hepatotoxicity; remark: listed apart in the source
[10] = tested on: Hepatotoxicity; remark: listed apart in the source
[11] = tested on: Hepatotoxicity; remark: listed apart in the source
[12] = tested on: Hepatotoxicity; remark: listed apart in the source
[13] = tested on: Hepatotoxicity; remark: listed apart in the source
[14] = tested on: Hepatotoxicity; remark: listed apart in the source

Row | Compound | HepSE_elevated liver function tests [1] | HepSE_bilirubinemia [2] | HepSE_hepatic failure [3] | HepSE_jaundice [4] | HepSE_hepatitis [5] | HepSE_cholecystitis [6] | HepSE_liver disease [7] | HepSE_hepatic necrosis [8] | HepSE_liver fatty [9] | HepSE_Combined Scores [10] | HepSE_cholelithiasis [11] | HepSE_hepatomegaly [12] | HepSE_liver function tests abnormal [13] | HepSE_cirrhosis [14] | also measured
1 | CN(C)C(=O)C(CCN1CCC(O)(c2ccc(Cl)cc2)CC1)(c1ccccc1)c1ccccc1 [LOPERAMIDE] | 0 | 0 | 0 | 0 | 0 | 0 | 0 | 0 | 0 | 0 | 0 | 0 | 0 | 0 | –
2 | C[C@H]1c2cccc(O)c2C(=O)C2=C(O)[C@]3(O)C(=O)C(C(N)=O)=C(O)[C@@H](N(C)C)[C@@H]3[C@@H](O)[C@@H]21.O [DOXYCYCLINE] | 0 | 0 | 0 | 0 | 0 | 0 | 0 | 0 | 0 | 0 | 0 | 0 | 0 | 0 | –
3 | NCC(CC(=O)O)c1ccc(Cl)cc1 (configuration not stated) [BACLOFEN] | 0 | 0 | 0 | 0 | 0 | 0 | 0 | 0 | 0 | 0 | 0 | 0 | 0 | 0 | –
4 | CC[C@]1(O)C[C@H]2CN(CCc3c([nH]c4ccccc34)[C@@](C(=O)OC)(c3cc4c(cc3OC)N(C=O)[C@H]3[C@@](O)(C(=O)OC)[C@H](OC(C)=O)[C@]5(CC)C=CCN6CC[C@]43[C@@H]65)C2)C1 [VINCRISTINE] | 0 | 0 | 0 | 0 | 0 | 0 | 0 | 0 | 0 | 0 | 0 | 0 | 0 | 0 | –
5 | COc1ccccc1OCC(O)CN1CCN(CC(=O)Nc2c(C)cccc2C)CC1 (configuration not stated) [RANOLAZINE] | 0 | 0 | 0 | 0 | 0 | 0 | 0 | 0 | 0 | 0 | 0 | 0 | 0 | 0 | –
6 | COC(=O)CCc1ccc(OCC(O)CNC(C)C)cc1 (configuration not stated) [ESMOLOL] | 0 | 0 | 0 | 0 | 0 | 0 | 0 | 0 | 0 | 0 | 0 | 0 | 0 | 0 | –
7 | COc1c(N2C[C@@H]3CCCN[C@@H]3C2)c(F)cc2c(=O)c(C(=O)O)cn(C3CC3)c12 [MOXIFLOXACIN] | 0 | 1 | 1 | 1 | 1 | 0 | 0 | 0 | 0 | 5 | 0 | 0 | 1 | 0 | –
8 | Oc1ncnc2[nH]ncc12 [ALLOPURINOL] | 0 | 1 | 0 | 1 | 1 | 0 | 0 | 1 | 0 | 5 | 0 | 1 | 0 | 0 | –
9 | Cc1cnc(NC(=O)C2=C(O)c3ccccc3S(=O)(=O)N2C)s1 [MELOXICAM] | 0 | 1 | 1 | 1 | 1 | 0 | 0 | 0 | 0 | 4 | 0 | 0 | 0 | 0 | –
10 | Cc1ccc(C(=O)c2ccc(CC(=O)O)n2C)cc1 [TOLMETIN] | 0 | 0 | 0 | 0 | 1 | 0 | 0 | 0 | 0 | 1 | 0 | 0 | 0 | 0 | –
11 | COc1ccc2c(c1)c(CC(=O)O)c(C)n2C(=O)c1ccc(Cl)cc1 [INDOMETHACIN] | 0 | 0 | 0 | 1 | 0 | 0 | 0 | 0 | 0 | 1 | 0 | 0 | 0 | 0 | –
12 | CCCCc1nc(N)[se]c1CCC | 0 | 0 | 0 | 0 | 0 | 0 | 0 | 0 | 0 | 0 | 0 | 0 | 0 | 0 | –
13 | Cc1oncc1C(=O)Nc1ccc(C(F)(F)F)cc1 [LEFLUNOMIDE] | 0 | 0 | 1 | 1 | 1 | 0 | 1 | 1 | 0 | 7 | 1 | 0 | 1 | 0 | –
14 | CNC[C@H](O)c1ccc(O)c(O)c1 [EPINEPHRINE] | – | – | – | – | – | – | – | – | – | – | – | – | – | – | HepSE_elevated liver function tests ([1]; Liver): 0; HepSE_bilirubinemia ([2]; Liver): 0; HepSE_hepatic failure ([3]; Liver): 0; HepSE_jaundice ([4]; Liver): 0; HepSE_hepatitis ([5]; Liver): 0; HepSE_cholecystitis ([6]; Liver): 0; HepSE_liver disease ([7]; Liver): 0; HepSE_hepatic necrosis ([8]; Liver): 0; HepSE_liver fatty ([9]; Liver): 0; HepSE_Combined Scores ([10]; Liver): 0; HepSE_cholelithiasis ([11]; Liver): 0; HepSE_hepatomegaly ([12]; Liver): 0; HepSE_liver function tests abnormal ([13]; Liver): 0; HepSE_cirrhosis ([14]; Liver): 0
15 | Cc1c(-c2ccccc2)oc2c(C(=O)OCCN3CCCCC3)cccc2c1=O [FLAVOXATE] | 0 | 0 | 0 | 0 | 0 | 0 | 0 | 0 | 0 | 0 | 0 | 0 | 0 | 0 | –
16 | CC1=C(C/C=C(\C)CCC[C@H](C)CCC[C@H](C)CCCC(C)C)C(=O)c2ccccc2C1=O [PHYTONADIONE] | 0 | 1 | 0 | 0 | 0 | 0 | 0 | 0 | 0 | 1 | 0 | 0 | 0 | 0 | –
17 | CC[N+](CC)(CCNC(=O)C(=O)NCC[N+](CC)(CC)Cc1ccccc1Cl)Cc1ccccc1Cl [AMBENONIUM] | 0 | 0 | 0 | 0 | 0 | 0 | 0 | 0 | 0 | 0 | 0 | 0 | 0 | 0 | –
18 | COc1cccc(C2(O)CCCCC2CN(C)C)c1 (configuration not stated) [TRAMADOL] | 0 | 0 | 1 | 0 | 1 | 1 | 0 | 0 | 0 | 5 | 1 | 0 | 1 | 0 | –
